Values quoted from earlier work in patent US20210268080A1, “IMMUNE STIMULATING COMPOSITIONS FOR THE TREATMENT AND REVENTION OF INFECTIONS WITH INTRACELLULAR PATHOGENS” (priority 2018, published 2021).

System: Trypanosoma cruzi

SMILES | efficacy in human studies (human, in vivo) | onset of heart disease (adults with chronic Chagas infections) | cure rate (children aged six to 12 years with chronic disease) | patients who fail to complete the drug regimen due to toxicities (months-long regimen) | serum parasite detection (patients with established Chagas cardiomyopathy) | cardiac clinical deterioration (patients with established Chagas cardiomyopathy, five years of follow-up)
CC[C@@H]([C@H](C)O)n1ncn(-c2ccc(N3CCN(c4ccc(OC[C@@H]5CO[C@@](Cn6cncn6)(c6ccc(F)cc6F)C5)cc4)CC3)cc2)c1=O [posaconazole] | limited efficacy |  |  |  |  | 
O=C(Cn1ccnc1[N+](=O)[O-])NCc1ccccc1 [benznidazole] |  | slow the onset | about 60% | ~20% | significantly reduced | did not significantly reduce
